Reference: ChEMBL document CHEMBL3621168, “Elucidating new structural features of the triazole scaffold for the development of mPGES-1 inhibitors” (Medchemcomm, 2015)

Legend:
Prostaglandin E synthase = target: T1, Prostaglandin E synthase (Homo sapiens, UniProt O14684); assay: Inhibition of mPGES1 isolated from human A549 cells after 15 mis by RP HPLC analysis; assay type: cell-free
T1 sequence (O14684 whole entry): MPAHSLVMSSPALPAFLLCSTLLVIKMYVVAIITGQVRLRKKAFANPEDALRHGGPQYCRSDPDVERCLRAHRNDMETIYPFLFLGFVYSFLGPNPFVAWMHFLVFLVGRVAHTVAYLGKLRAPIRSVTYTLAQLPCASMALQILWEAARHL

[1] = target: T2, Prostaglandin E synthase (Homo sapiens) (UniProt O14684); assay: Inhibition of mPGES1 isolated from human A549 cells at 10 uM after 15 mis by RP HPLC analysis; assay type: cell-free
T2 sequence (whole entry): T1 sequence (O14684 whole entry)

| SMILES | IC50 (Prostaglandin E synthase) | inhibition [1] |
| --- | --- | --- |
| O=[N+]([O-])c1ccc(OCc2cn(-c3cccc(C(F)(F)F)c3)nn2)c(C(F)(F)F)c1 | > 30 µM | 20% |
| N#Cc1ccc(-n2cc(COc3ccc(C(F)(F)F)cc3)nn2)cc1C(F)(F)F | > 30 µM | 20% |
| N#Cc1ccc(-n2cc(COc3ccc([N+](=O)[O-])cc3C(F)(F)F)nn2)cc1C(F)(F)F | > 30 µM | 20% |
| N#Cc1ccc(-n2nnc(COc3ccc([N+](=O)[O-])cc3C(F)(F)F)c2I)cc1C(F)(F)F | 0.7 µM |  |
| N#Cc1ccc(-n2cc(COc3cccc(C(F)(F)F)c3)nn2)cc1C(F)(F)F | > 30 µM | 20% |
